According to patent EP0421419A2, “Tocotrienols in the treatment of hypercholesterolemia, hyperlipidemia and thromboembolic disorders” (Bristol-Myers Squibb Company, priority 1989, dated 1991):
Values after ≈ are worked out from the molar mass of the structure shown. Where two headings read alike, the source gives them in different places.

What was measured:
[1] = tested on: Cholesterol Synthesis in HepG2 Cells; test: HepG2 cell culture model, 14C-acetate incorporation assay; assay type: cell-based, human; settings: for % Inhibition 14C-Ac / inhibition at 10 µM: 10 µM, about 4 hours; for inhibition at 10 µM: read-out: % Inhibition 14C-Ac; for Rel. Potency: γ-Tocotrienol = 1.0; for IC50: read-out: IC₅₀
Procedure: HepG2 cells obtained from the American Type Culture Collection were routinely passaged in RPMI-1640 plus 10% fetal bovine serum (FBS) and were subcultured into 35 mm diameter wells for experiments. […] The LDS medium supplement was prepared according to Cham et al., J. Lipid Res., 17: 176-181, (1976). After about 16 hours in LDS containing media, test compounds were added in dimetthylsulfoxide vehicle (0.5% v/v final conc.) for the period of time indicated in the data (generally 4 hours). Cholesterol synthesis was then directly determined by the incorporation of 2-14C-acetate (1.8-3.0 mCi/mmol) into digitonin-precipitable sterols essentially as described for the rat hepatocyte methol above. Greater than 97% of the radiolabelled sterol isolated by this procedure was cholesterol as judged by HPLC. Percent inhibition was calculated from the average of duplicates or triplicates vs. controls receiving vehicle.
(§1) The human hepatoma HepG2 cell culture model was employed to compare the intrinsic activities of the tocotrienols. HepG2 cells were incubated with the indicated compounds for about 4 hours at 10 µM. Cholestrol synthesis was assayed by 14C-acetate incorporation and HMG-CoA reductase suppression was assayed in the isolated microsomal fraction. Cholesterol synthesis inhibition was assayed by 14C-acetate incorporation after preincubation of HepG2 cells with the compounds for about 2 hours or about 4 hours (Example IV). […] As the data in Figure 1 indicate, gamma-tocotrienol has an even greater relative potency compared to alpha-tocotrienol in the HepG2 cell model than in rat hepatocytes. The IC50s from these studies are given in Table 3, in which it can be seen that the intrinsic potency of gamma-tocotrienol is over 30-fold greater than that of alpha-tocotrienol.

[2] = tested on: HMG-CoA reductase; test: HepG2 cell culture model, HMG-CoA reductase suppression assay; assay type: cell-based, human; settings: 10 µM, about 4 hours, HepG2 cells
Procedure: HMG-CoA reductase suppression in HepG2 cells was conducted by growing cells in RPMT-1640 plus 10% FBS on 100 mm plates, and when cells reached approximately 75% confluency, inducing with LDS (as described above) for about 16 hours prior to assays. Compounds were added using dimethylsulfoxide vehicle (0.5% v/v, final) and after about 4 hours of incubation at 37°, cells were harvested by scraping. Cell pellets were rinsed and lysed by sonication in 1.7 ml cold 50 mM imidazole-HCL, pH 7.2, 50 mM NaCl, 10 mM EDTA, 10 mM EGTA, 5 mM DTT, and 40µM leupeptin). Lysates were centriguged at 150 x g and the supernatant was centrifuged at 100,000 x g in a Beckman airfuge to isolate the post-nuclear total membrane fraction. The membranes were resuspended in 50 mM imidazole-HCl, pH 7.2, 250 mM NaCl, 5 mM DTT, and 20µM leupeptin and used for the assay of HMG-CoA reductase activity by the radiochemical procedure as described previously by Parker et al., J. Biol. Chem., 264: 4877-4887, (1989). Values were normalized for protein content by the Lowry method as cited previously (ibid). HMG-CoA reductase percent suppression was calculated as the decrease in specific activity of HMG-CoA reductase for treated cells vs. controls receiving vehicle. Averages of duplicate cell determinations assayed in duplicate were taken.
as §1
The mechanism of cholesterol synthesis inhibition by tocotrienols involves down regulation of the limiting enzyme of sterol synthesis, HMG-CoA reductase. […] The suppression of HMG-CoA reductase protein expression by gamma-tocotrienol and delta-tocotrienol in HepG2 cells and in rat liver has been confirmed by immunoassy using the Western blot technique (data not shown).

[3] = tested on: Hepatic HMGCoA Reductase; test: Acute rat HMGCoA reductase suppression model; assay type: in vivo; settings: four hours after administration; for Hepatic HMGCoA Reductase Activity (mean ± SEM): 195 µmol/kg (equivalent to 80 mg/kg Example 24) intragastric in olive oil, vehicle control 479 ± 88; for Hepatic HMGCoA Reductase Activity % of Control: 195 µmol/kg intragastric in olive oil
Procedure: Using an acute rate model for suppression of hepatic HMGCoA reductase, the effectiveness of three forms of d,l-γ-tocotrienol were compared in vivo. In this assay system, the test agents were administered by intragastric intubation as solutions dissolved in olive oil vehicle. Four hours after administration of test agents, rat liver HMGCoA reductase total activity levels were determined by standard techniques in this laboratory. […]

[4] = tested on: Lipid Metabolism; test: Lipid metabolism in normocholesterolemic chickens fed compound in diet; assay type: in vivo; settings: CCD + 20 ppm per head (text: 50 ppm)
[5] = tested on: Cholesterol Synthesis in Isolated Rat Hepatocytes; test: Rat hepatocyte cholesterol biosynthesis model (14C-acetate incorporation into digitonin-precipitable sterols); assay type: cell-based; settings: for inhibition at 210 µg/mL: 210 µg/ml (approx. 500 µM), 60 min 14C-acetate incorporation, 0.2% Tween-80; for inhibition at 250 µg/mL: read-out: % Inhibition at µg/ml conc: 250; for inhibition at 500 µg/mL: read-out: % Inhibition at µg/ml conc: 500; for IC50: read-out: IC₅₀
Procedure: Primary rat parenchymal hepatocytes were prepared from male Wistar rats (180-220 g) at mid-dark in the diurnal cycle by standard collagenase perfusion method as described previously. Ingebritsen et al. J. Biol. Chem., 254: 9986-9989, (1979). Aliquots of cells were suspended (100 mg in 2 ml) in Eagle's minimum essential medium (MEM) supplemented with 2% bovine albumin, and preincubated in a shaking water bath at about 37° under 95% O₂/5% CO₂ with compounds added as given in the data. […] Following a preincubation of about 15 to about 45 minutes as indicated, cholesterol synthesis in intact cells was assayed by 2-14C-acetate (1.8 mCi/mmol, 0.5 µCi/ml) incorporation for about 30 to about 60 minutes (previously shown to be time-linear) into total digitonin-precipitable sterols. […] Percent inhibition was calculated from the average of duplicates vs. triplicate vehicle controls conducted simultaneously.
The primary rat hepatocyte assay for cholesterol bio-synthesis inhibition was conducted as described in Example 2 except the preincubation was about 45 minutes and the 14C-acetate incorporation was about 30 minutes. The indicated compounds were purified from the same natural product source as the mixture used in Example 2. […] Two-component mixtures of the constituents separated from the tocotrienol mixture were tested under the conditions indentical to Table 2A.

[6] = tested on: platelet aggregation; test: Rabbit biolaser ear chamber antithrombotic model; assay type: in vivo; settings: 100mg/kg oral
Procedure: The antithrombotic properties of gamma-tocotrienol were evaluated in a rabbit biolaser ear chamber model. Fasted rabbits were orally dosed with either vehicle or vehicle plus gamma-tocotrienol at 100mg/kg. An erythrocyte contained within a capillary, near the ear surface, is ruptured with a laser shot, thereby releasing platelet aggregating ADP. gamma-Tocotrienol inhibited platelet aggregation 37% at about 2 hours after oral dosing, 44% after about 4 hours and 25% after about 6 hours as measured by averaging the mean thrombus area over 10 trials.

[7] = Pure gamma-tocotrienol capsules in hypercholesterolemic human subjects; assay type: in vivo; settings: capsules 50 mg/capsule, after 4 weeks of feeding; serum cholesterol levels 302.5 mg/dl
[8] = Rattus norvegicus, Hepatocyte, 15 min preincubation
[9] = Rattus norvegicus, Hepatocyte, Expt. # 1, 45 min preincubation, 30 min incorporation
[10] = Rattus norvegicus, Hepatocyte, Expt. # 2, 45 min preincubation, 30 min incorporation

## 3,4-dihydro-2-methyl-2-(4,8,12-trimethyltrideca-3(E),7(E),11-trienyl)-2H-1-benzopyran-6-ol [d,1-Tocotrienol]
[1]
  % Inhibition 14C-Ac: 69%
[2]
  % Suppression HMG-CoA Reductase: 62%

## CC(C)=CCC/C(C)=C/CC/C(C)=C/CCC1(C)CCc2cc(O)c(C)c(C)c2O1 (racemic) [Ex. 24, 3,4-dihydro-2,7,8-trimethyl-2-(4,8,12-trimethyltrideca-3(E),7(E),11-trienyl)-2H-1-benzopyran-6-ol]
[1]; Homo sapiens, HepG2
  inhibition at 10 µM: 75%
[2]
  % Suppression HMG-CoA Reductase: 65%
[3]
  Hepatic HMGCoA Reductase Activity (mean ± SEM): 266 ± 24 mU/mg
  Hepatic HMGCoA Reductase Activity % of Control: 56%
[4]; Table 6, synthetic compound, 4 weeks, control 158.8(±9.0)
  Serum Cholesterol: 121.2(±2.2) mg/dl
[4]; Table 6
  HDL-Cholesterol [% of Control]: 87.0%
  LDL-Cholesterol [% of Control]: 54.8%
  Serum Cholesterol [% of Control]: 76.3%
  Serum Triglycerides [% of Control]: 100.7%
[4]; Table 6, control 1.938
  HDL/LDL: 3.080
[4]; Table 6, control 52.8 (±1.1)
  LDL-Cholesterol: 28.9(±1.2) mg/dl
[4]; Table 6, control 63.4(±2.1)
  Serum Triglycerides: 63.9(±1.6) mg/dl
[4]; Table 6, control 102.3(±3.0)
  HDL-Cholesterol: 89.0(±2.9) mg/dl

## CC(=O)Oc1cc2c(c(C)c1C)OC(C)(CC/C=C(\C)CC/C=C(\C)CCC=C(C)C)CC2 (racemic) [Ex. 33, 3,4-Dihydro-2,7,8-Trimethyl-2-(4,8,12-Trimethyltrideca-3(E),7(E), 11-trienyl)-2H-1-Benzopyran-6-Yl Acetate]
[3]
  Hepatic HMGCoA Reductase Activity (mean ± SEM): 236 ± 23 mU/mg
  Hepatic HMGCoA Reductase Activity % of Control: 49%

## CC(C)=CCC/C(C)=C/CC/C(C)=C/CCC1(C)CCc2cc(OC(=O)c3cccnc3)c(C)c(C)c2O1 (racemic) [Ex. 34, 3,4-Dihydro-2,7,8-Trimethyl-2-(4,8,12-Trimethyl 3(E), 7(E),11-tridecatrienyl)-2H-1 Benzopyran-6-Yl-3-Pyridine Carboxylate]
[3]
  Hepatic HMGCoA Reductase Activity (mean ± SEM): 156 ± 21 mU/mg
  Hepatic HMGCoA Reductase Activity % of Control: 33%

## CC(C)=CCC/C(C)=C/CC/C(C)=C/CCC1(C)CCc2c(C)c(O)c(C)c(C)c2O1 (racemic) [d,1-α-tocotrienol, 3,4-dihydro-2,5,7,8-tetramethyl-2-(4,8,12-trimethyltrideca-3(E),7(E),11-trienyl)-2H-1-benzopyran-6-ol, reference compound]
[5]; Rattus norvegicus, Hepatocyte, 41 µg/ml (approx. 100 µM), 15 min preincubation, 60 min incorporation
  inhibition at 41 µg/mL: 4%
[5]; [8]
  inhibition at 210 µg/mL: 17%
[1]; Homo sapiens, HepG2
  inhibition at 10 µM: 20%
[2]
  % Suppression HMG-CoA Reductase: 19%

## Cc1c(C)c2c(c(C)c1O)CC[C@@](C)(CCC[C@H](C)CCC[C@H](C)CCCC(C)C)O2 [d-α-tocopherol, reference compound]
[5]; Expt. # 1, 45 min preincubation, 30 min incorporation
  IC₅₀: no inhib
[5]; [8]
  inhibition at 210 µg/mL: 0%
[5]; [9]
  inhibition at 250 µg/mL: 0%
  inhibition at 500 µg/mL: 2%
[5]; [10]
  inhibition at 250 µg/mL: 0%
  inhibition at 500 µg/mL: 0%

## CC(C)=CCC/C(C)=C/CC/C(C)=C/CC[C@]1(C)CCc2c(C)c(O)c(C)c(C)c2O1 [d-α-tocotrienol, reference compound]
[5]; Rattus norvegicus, Hepatocyte, 125 µg/ml, Expt. # 2, 45 min preincubation, 30 min incorporation, read-out: % Inhibition at µg/ml conc: 125
  inhibition at 125 µg/mL: 8%
[5]; [9]
  inhibition at 250 µg/mL: 8%
  inhibition at 500 µg/mL: 12%
  IC50: > 1000 µg/mL
[5]; [10]
  inhibition at 250 µg/mL: 20%
  inhibition at 500 µg/mL: 33%
  IC50: 1300 µg/mL (≈ 3.06 mM)

## CC(C)=CCC/C(C)=C/CC/C(C)=C/CCC1(C)CCc2cc(O)c(C)c(C)c2O1 (stereo not shown) [γ-Tocotrienol]
[5]; rat and chicken hepatocyte system
  times more active than alpha-tocotrienol: at least 5 times
[1]; 2 hr. Incubation
  Rel. Potency: 1.0
[1]; 4 hr. Incubation
  Rel. Potency: 1.0
[1]; Homo sapiens, HepG2, 2 hr. Incubation
  IC50: 5.9 µM
[1]; Homo sapiens, HepG2, 4 hr. Incubation
  IC50: 2.8 µM
[1]; from IC50s of Table 3
  intrinsic potency greater than that of alpha-tocotrienol: over 30 fold
[6]; about 2 hours after dosing, mean thrombus area over 10 trials
  inhibited platelet aggregation: 37%
[6]; about 4 hours after dosing
  inhibited platelet aggregation: 44%
[6]; about 6 hours after dosing
  inhibited platelet aggregation: 25%
[7]
  decrease in serum cholesterol levels: 35%

## α-Tocotrienol [reference compound]
[1]; 2 hr. Incubation
  IC50: 380 µM
  Rel. Potency: 0.02
[1]; 4 hr. Incubation
  IC50: 94 µM
  Rel. Potency: 0.03

## γ-Tocopherol [reference compound]
[1]
  % Inhibition 14C-Ac: 3%
[2]
  % Suppression HMG-CoA Reductase: 0%
